Assay results from US20190343908A1, “Therapeutic Combination for the Treatment of Cancer” (Nerium Biotechnology Inc., priority 2011, published 2019).

Key:
[1] = test system: 22Rv1 (human prostate cancer); test: Methyl-Tetrazolium (MTT) viability assay, 22Rv1; type: cell-based; details: for Average absorbance, MTT 24 h / Average absorbance, MTT 48 h / Average absorbance, MTT 72 h: 22Rv1 Run 3
Excerpt: Three different viability assays were chosen to complement each other and yielded results dependent on concentration and cell line: the Methyl Tetrazolium dye assay, the Sulforhodamine B fluorescent dye assay, and the Crystal Violet dye assay.
The Methyl-Tetrazolium dye assay measures the activity of enzymes in mitochondria. The dye precursor is taken up by cells, where it undergoes reduction to the purple formazan. It measures only the mitochondrial activity and, thus, it is not always a reliable indication of whether the cells themselves are alive or dead, since even a recently dead cell has […] enzyme activity in mitochondria. Intracellular glucose concentration, pH, and time before assay all affect the measurements.
(§1) The Methyl Tetrazolium, Sulforhodamine B, and Crystal Violet assays were used to assess cell viabilities. The incubation times were 24 hours, 48 hours, and 72 hours. The Nerium oleander extract Anvirzel™ (a hot water extract of oleander obtained from Salud Integral, Honduras) was tested in concentrations ranging from 0.01 ng/mL to 10 ng/mL.
(§2) Cells were detached by trypsinization (Trypsin-0.25% EDTA, Invitrogen, 25200-072) during the logarithmic phase of culture growth and plated in 96-well plates (18.000 cells/well) (Corning, Costar 359) in a final volume of 200 μl of medium per well. […] The absorbance was measured after 24 hours, 48 hours, and 72 hours of incubation.
For the Methyl-Tetrazolium assay, the dye (Sigma, M2128; 5 mg/mL, diluted in phosphate-buffered saline) was added to each well and plates were incubated for 3 hours at 37° C. After the end of the incubation period, the medium was discarded and the cells were rinsed with phosphate-buffered saline. Finally, the formazan crystals were dissolved in dimethylsulphoxide (Sigma, D4540).
(§3) The optical density of each plate was measured on a μQuant spectrophotometer and the data were analyzed with Gen5 software (μQuant Biomolecular Spectrophotometer MQX200 and Gen5™ Microplate Data Collection & Analysis software, BioTek® Instruments. Inc, April 2008). Absorbance was measured at 570 nm for all assays and a second wavelength was measured in order to subtract noise. For the Methyl-Tetrazolium assay this second wavelength was 630 nm and for the Sulforhodamine B and Crystal Violet assays it was 690 nm.

[2] = test system: 22Rv1 (human prostate cancer); test: Crystal Violet (CVE) viability assay, 22Rv1; type: cell-based; details: for Average absorbance, CVE 24 h / Average absorbance, CVE 48 h / Average absorbance, CVE 72 h: 22Rv1 Run 3
Excerpt: The Sulforhodamine B and Crystal Violet assays provide information about protein and were used to complement the Methyl-Tetrazolium dye assay. […] It is used for the quantification of cellular proteins of cultured cells. The assay using Crystal Violet, a dye that binds electrostatically to proteins and stains DNA, provides a reliable, simple assay for measuring viability of cells.
as §1, §2
For the Crystal Violet assay, the medium was removed from the 96-well plates, the plates rinsed with PBS (Sigma, P3813) and then the cells were […] by the addition of 10% formalin (MERCK, 1.04003.2500) for 20 minutes at RT. Formalin was removed and 0.25% aqueous crystal violet (Sigma, HT901), dissolved in water, was added for 10 minutes at RT. Unbound Crystal Violet was rinsed by washing with water and finally 33% acetic acid was added to dissolve the dye.
as §3

Structure (SMILES): N.N.[Cl][Pt][Cl] [cisplatin]
- MTT 24 h Average ([1]; 22Rv1 Run 1, 0.1 μg/ml CDDP): 0.042
- MTT 48 h Average ([1]; 22Rv1 Run 1, 0.1 μg/ml CDDP): 0.141
- MTT 72 h Average ([1]; 22Rv1 Run 1, 0.1 μg/ml CDDP): 0.168
- MTT 24 h Average ([1]; 22Rv1 Run 1, 1 μg/ml CDDP): 0.013
- MTT 48 h Average ([1]; 22Rv1 Run 1, 1 μg/ml CDDP): 0.013
- MTT 72 h Average ([1]; 22Rv1 Run 1, 1 μg/ml CDDP): 0.015
- MTT 24 h Average ([1]; 22Rv1 Run 1, 10 μg/ml CDDP): 0.033
- MTT 48 h Average ([1]; 22Rv1 Run 1, 10 μg/ml CDDP): 0.013
- MTT 72 h Average ([1]; 22Rv1 Run 1, 10 μg/ml CDDP): 0.01
- MTT 24 h Average ([1]; 22Rv1 Run 1, 100 μg/ml CDDP): 0.011
- MTT 48 h Average ([1]; 22Rv1 Run 1, 100 μg/ml CDDP): 0.008
- MTT 72 h Average ([1]; 22Rv1 Run 1, 100 μg/ml CDDP): 0.009
- MTT 24 h Average ([1]; 22Rv1 Run 2, 0.1 μg/ml CDDP): 0.077
- MTT 48 h Average ([1]; 22Rv1 Run 2, 0.1 μg/ml CDDP): 0.172
- MTT 72 h Average ([1]; 22Rv1 Run 2, 0.1 μg/ml CDDP): 0.29
- MTT 24 h Average ([1]; 22Rv1 Run 2, 1 μg/ml CDDP): 0.011
- MTT 48 h Average ([1]; 22Rv1 Run 2, 1 μg/ml CDDP): 0.014
- MTT 72 h Average ([1]; 22Rv1 Run 2, 1 μg/ml CDDP): 0.016
- MTT 24 h Average ([1]; 22Rv1 Run 2, 10 μg/ml CDDP): 0.019
- MTT 48 h Average ([1]; 22Rv1 Run 2, 10 μg/ml CDDP): 0.016
- MTT 72 h Average ([1]; 22Rv1 Run 2, 10 μg/ml CDDP): 0.013
- MTT 24 h Average ([1]; 22Rv1 Run 2, 100 μg/ml CDDP): 0.009
- MTT 48 h Average ([1]; 22Rv1 Run 2, 100 μg/ml CDDP): 0.008
- MTT 72 h Average ([1]; 22Rv1 Run 2, 100 μg/ml CDDP): 0.008
- Average absorbance, MTT 24 h ([1]; 0.1 μg/ml CDDP): 0.08
- Average absorbance, MTT 48 h ([1]; 0.1 μg/ml CDDP): 0.135
- Average absorbance, MTT 72 h ([1]; 0.1 μg/ml CDDP): 0.128
- Average absorbance, MTT 24 h ([1]; 1 μg/ml CDDP): 0.015
- Average absorbance, MTT 48 h ([1]; 1 μg/ml CDDP): 0.016
- Average absorbance, MTT 72 h ([1]; 1 μg/ml CDDP): 0.015
- Average absorbance, MTT 24 h ([1]; 10 μg/ml CDDP): 0.023
- Average absorbance, MTT 48 h ([1]; 10 μg/ml CDDP): 0.017
- Average absorbance, MTT 72 h ([1]; 10 μg/ml CDDP): 0.013
- Average absorbance, MTT 24 h ([1]; 100 μg/ml CDDP): 0.011
- Average absorbance, MTT 48 h ([1]; 100 μg/ml CDDP): 0.011
- Average absorbance, MTT 72 h ([1]; 100 μg/ml CDDP): 0.011
- CVE 24 h Average ([2]; 22Rv1 Run 1, 0.1 μg/ml CDDP): 0.27
- CVE 48 h Average ([2]; 22Rv1 Run 1, 0.1 μg/ml CDDP): 0.501
- CVE 72 h Average ([2]; 22Rv1 Run 1, 0.1 μg/ml CDDP): 0.803
- CVE 24 h Average ([2]; 22Rv1 Run 1, 1 μg/ml CDDP): 0.152
- CVE 48 h Average ([2]; 22Rv1 Run 1, 1 μg/ml CDDP): 0.437
- CVE 72 h Average ([2]; 22Rv1 Run 1, 1 μg/ml CDDP): 0.606
- CVE 48 h Average ([2]; 22Rv1 Run 1, 10 μg/ml CDDP): 0.351
- CVE 72 h Average ([2]; 22Rv1 Run 1, 10 μg/ml CDDP): 0.439
- CVE 24 h Average ([2]; 22Rv1 Run 1, 100 μg/ml CDDP): 0.124
- CVE 48 h Average ([2]; 22Rv1 Run 1, 100 μg/ml CDDP): 0.273
- CVE 72 h Average ([2]; 22Rv1 Run 1, 100 μg/ml CDDP): 0.233
- CVE 24 h Average ([2]; 22Rv1 Run 2, 0.1 μg/ml CDDP): 0.541
- CVE 48 h Average ([2]; 22Rv1 Run 2, 0.1 μg/ml CDDP): 0.776
- CVE 72 h Average ([2]; 22Rv1 Run 2, 0.1 μg/ml CDDP): 0.784
- CVE 24 h Average ([2]; 22Rv1 Run 2, 1 μg/ml CDDP): 0.305
- CVE 48 h Average ([2]; 22Rv1 Run 2, 1 μg/ml CDDP): 0.517
- CVE 72 h Average ([2]; 22Rv1 Run 2, 1 μg/ml CDDP): 0.286
- CVE 24 h Average ([2]; 22Rv1 Run 2, 10 μg/ml CDDP): 0.376
- CVE 48 h Average ([2]; 22Rv1 Run 2, 10 μg/ml CDDP): 0.434
- CVE 72 h Average ([2]; 22Rv1 Run 2, 10 μg/ml CDDP): 0.206
- CVE 24 h Average ([2]; 22Rv1 Run 2, 100 μg/ml CDDP): 0.228
- CVE 48 h Average ([2]; 22Rv1 Run 2, 100 μg/ml CDDP): 0.228
- CVE 72 h Average ([2]; 22Rv1 Run 2, 100 μg/ml CDDP): 0.256
- Average absorbance, CVE 24 h ([2]; 0.1 μg/ml CDDP): 0.85
- Average absorbance, CVE 48 h ([2]; 0.1 μg/ml CDDP): 0.644
- Average absorbance, CVE 72 h ([2]; 0.1 μg/ml CDDP): 0.45
- Average absorbance, CVE 24 h ([2]; 1 μg/ml CDDP): 0.434
- Average absorbance, CVE 48 h ([2]; 1 μg/ml CDDP): 0.404
- Average absorbance, CVE 72 h ([2]; 1 μg/ml CDDP): 0.284
- Average absorbance, CVE 24 h ([2]; 10 μg/ml CDDP): 0.295
- Average absorbance, CVE 48 h ([2]; 10 μg/ml CDDP): 0.289
- Average absorbance, CVE 72 h ([2]; 10 μg/ml CDDP): 0.283
- Average absorbance, CVE 24 h ([2]; 100 μg/ml CDDP): 0.215
- Average absorbance, CVE 48 h ([2]; 100 μg/ml CDDP): 0.212
- Average absorbance, CVE 72 h ([2]; 100 μg/ml CDDP): 0.234
